Source: ChEMBL document CHEMBL4376876 (J Med Chem, 2020)
In brackets after ≈: the same amount, converted by molar mass.

Experiments:
[1] = system: Mycobacterium tuberculosis; assay: Antibacterial activity against Mycobacterium tuberculosis H37Rv after 7 days by resazurin dye-based assay; type: functional; conditions: 168 h
[2] = Stability in Middlebrook 7H9 medium at 10 ug/ml after 7 days relative to control; type: physicochemical; conditions: read-out: Stability
[3] = system: Mycobacterium tuberculosis; assay: Antimycobacterial activity against Mycobacterium tuberculosis H37Rv transfected with pMV261 empty vector after 7 days by resazurin dye-based assay; type: functional; conditions: 168 h
[4] = system: Mycobacterium tuberculosis; assay: Antimycobacterial activity against Mycobacterium tuberculosis H37Rv over expressing InhA after 7 days by resazurin dye-based assay; type: functional; conditions: 168 h

Row | SMILES | MIC [1] | remaining at 168 h, 10 ug/ml [2] | MIC [3] | MIC [4]
1 | CC/C(C)=C1\OC(=O)[C@H](C)[C@H](O)[C@H](Cc2cccnc2)NC(=O)[C@@H](NC(=O)c2ncccc2O)[C@@H](C)OC1=O [PYRIDOMYCIN] | 0.55 to 3.05 µM (≈ 0.297 to 1.65 µg/mL) | > 50% | 0.74 µM (≈ 0.4 µg/mL) | 11.6 µM (≈ 6.25 µg/mL)
2 | CC(C)[C@H]1OC(=O)[C@H](C)[C@H](O)[C@H](Cc2cccnc2)NC(=O)[C@@H](NC(=O)c2ncccc2O)[C@@H](C)OC1=O | 3.2 µM (≈ 1.69 µg/mL) |  | 3.1 µM (≈ 1.64 µg/mL) | 24.2 µM (≈ 12.8 µg/mL)
3 | C[C@H]1OC(=O)[C@@H](CO)OC(=O)[C@H](C)[C@H](O)[C@H](Cc2cccnc2)NC(=O)[C@H]1NC(=O)c1ncccc1O | 96.8 µM (≈ 50 µg/mL) |  |  | 
4 | C[C@H]1OC(=O)[C@H](C)[C@H](O)[C@H](Cc2cccnc2)NC(=O)[C@@H](NC(=O)c2ncccc2O)[C@@H](C)OC1=O | 49.9 µM (≈ 25 µg/mL) |  |  | 
5 | CC[C@@H](C)[C@H]1OC(=O)[C@H](C)[C@H](O)[C@H](Cc2cccnc2)NC(=O)[C@@H](NC(=O)c2ncccc2O)[C@@H](C)OC1=O | 1.5 µM (≈ 0.814 µg/mL) |  |  | 
6 | CC[C@H](C)[C@H]1OC(=O)[C@H](C)[C@H](O)[C@H](Cc2cccnc2)NC(=O)[C@@H](NC(=O)c2ncccc2O)[C@@H](C)OC1=O | 2.9 µM (≈ 1.57 µg/mL) |  | 2.9 µM (≈ 1.57 µg/mL) | 2.9 µM (≈ 1.57 µg/mL)
7 | C[C@H]1OC(=O)[C@@H]([C@@H](C)c2ccccc2)OC(=O)[C@H](C)[C@H](O)[C@H](Cc2cccnc2)NC(=O)[C@H]1NC(=O)c1ncccc1O | 2.6 µM (≈ 1.54 µg/mL) |  |  | 
8 | CC[C@H]1OC(=O)[C@H](C)[C@H](O)[C@H](Cc2cccnc2)NC(=O)[C@@H](NC(=O)c2ncccc2O)[C@@H](C)OC1=O | 4.9 µM (≈ 2.52 µg/mL) |  | 4.9 µM (≈ 2.52 µg/mL) | > 19.1 µM
9 | NNC(=O)c1ccncc1 [ISONIAZID] |  |  | 1.2 µM (≈ 0.165 µg/mL) | 37.3 µM (≈ 5.12 µg/mL)
10 | C[C@H]1OC(=O)[C@@H](Cc2ccccc2)OC(=O)[C@H](C)[C@H](O)[C@H](Cc2cccnc2)NC(=O)[C@H]1NC(=O)c1ncccc1O | 4.3 µM (≈ 2.48 µg/mL) |  | 4.3 µM (≈ 2.48 µg/mL) | > 17.3 µM
11 | C[C@@H]1C(=O)N[C@H](C2CCCCC2)C(=O)O[C@H](C)[C@H](NC(=O)c2ncccc2O)C(=O)N[C@@H](Cc2cccnc2)[C@@H]1O | 136 µM (≈ 77.1 µg/mL) |  |  | 
12 | CC(C)[C@H]1NC(=O)[C@@H](C)[C@@H](O)[C@H](Cc2cccnc2)NC(=O)[C@@H](NC(=O)c2ncccc2O)[C@@H](C)OC1=O | 94.6 µM (≈ 49.9 µg/mL) |  |  | 
13 | C[C@H](c1ccccc1)[C@H]1OC(=O)[C@H](C)[C@H](O)[C@H](Cc2cccnc2)NC(=O)[C@@H](NC(=O)c2ncccc2O)[C@@H](C)OC1=O | 2.6 µM (≈ 1.54 µg/mL) |  |  | 
14 | CC(C)[C@@H]1OC(=O)[C@H](C)[C@H](O)[C@H](Cc2cccnc2)NC(=O)[C@@H](NC(=O)c2ncccc2O)[C@@H](C)OC1=O | 26 µM (≈ 13.7 µg/mL) |  |  | 
15 | CC[C@@H](C)[C@H]1NC(=O)[C@H](C)[C@H](O)[C@H](Cc2cccnc2)NC(=O)[C@@H](NC(=O)c2ncccc2O)[C@@H](C)OC1=O | 185 µM (≈ 100 µg/mL) |  |  | 
